Assay results from ChEMBL document CHEMBL5346921, “Discovery of novel benzamide derivatives bearing benzamidophenyl and phenylacetamidophenyl scaffolds as potential antitumor agents via targeting PARP-1” (Eur J Med Chem, 2023).
Activity calls are given as the source filed them. No cut-off for these calls is given here.

What was measured:
[1] = test system: HCT-116; test: Induction of cell cycle arrest in human HCT-116 cells assessed as accumulation of cells at G0/G1 phase at 1.5 uM incubated for 48 hrs by PI staining based flow cytometry (reference value: 62.1%); type: functional
[2] = test system: HCT-116; test: Induction of apoptosis in human HCT-116 cells assessed as increase in cleaved PARP protein expression incubated for 48 hrs by western blot analysis; type: functional, cell-based; conditions: dose 0.3-3 µM
[3] = test system: HCT-116; test: Induction of cell cycle arrest in human HCT-116 cells assessed as accumulation of cells at G0/G1 phase at 0.3 uM incubated for 72 hrs by PI staining based flow cytometry (reference value: 57.2%); type: functional
[4] = test system: HCT-116; test: Induction of apoptosis in human HCT-116 cells assessed as necrotic cells at 0.3 uM incubated for 72 hrs by AnnexinV-FITC/PI staining based analysis (reference value: 0%); type: functional
[5] = test system: HCT-116; test: Induction of mitochondrial membrane potential loss in human HCT-116 cells assessed as JC-1 aggregate level by measuring red fluorescence intensity at 3 uM incubated for 48 hrs by JC-1 staining based flow cytometry (reference value: 96.72%); type: functional
[6] = test system: HCT-116; test: Induction of cell cycle arrest in human HCT-116 cells assessed as accumulation of cells at G0/G1 phase at 0.3 uM incubated for 48 hrs by PI staining based flow cytometry (reference value: 62.1%); type: functional
[7] = test system: HCT-116; test: Induction of apoptosis in human HCT-116 cells assessed as late apoptotic cells at 0.3 uM incubated for 48 hrs by AnnexinV-FITC/PI staining based flow cytometry (reference value: 0%); type: functional
[8] = test system: HCT-116; test: Induction of cell cycle arrest in human HCT-116 cells assessed as accumulation of cells at G0/G1 phase at 7.5 uM incubated for 48 hrs by PI staining based flow cytometry (reference value: 62.1%); type: functional
[9] = test system: HCT-116; test: Induction of DNA double strand breaks in human HCT-116 cells assessed as gammaH2AX accumulation at 3 uM incubated for 48 hrs by immunofluorescence analysis; type: functional, cell-based
[10] = test system: HCT-116; test: Induction of cell cycle arrest in human HCT-116 cells assessed as accumulation of cells at S phase at 1.5 uM incubated for 72 hrs by PI staining based flow cytometry (reference value: 16.7%); type: functional
[11] = test system: HCT-116; test: Induction of cell cycle arrest in human HCT-116 cells assessed as accumulation of cells at S phase at 1.5 uM incubated for 48 hrs by PI staining based flow cytometry (reference value: 14.5%); type: functional
[12] = test system: HCT-116; test: Induction of DNA double-strand breaks in human HCT-116 cells assessed as gammaH2AX accumulation incubated for 48 hrs by western blot analysis; type: functional, cell-based; conditions: dose 0.3-3 µM
[13] = test system: HCT-116; test: Induction of cell cycle arrest in human HCT-116 cells assessed as accumulation of cells at S phase at 0.3 uM incubated for 48 hrs by PI staining based flow cytometry (reference value: 14.5%); type: functional
[14] = test system: HCT-116; test: Induction of apoptosis in human HCT-116 cells assessed as decrease in Bcl-2 protein expression incubated for 48 hrs by western blot analysis; type: functional, cell-based; conditions: dose 0.3-3 µM
[15] = test system: HCT-116; test: Induction of cell cycle arrest in human HCT-116 cells assessed as accumulation of cells at G2/M phase at 7.5 uM incubated for 72 hrs by PI staining based flow cytometry (reference value: 25.4%); type: functional
[16] = test system: HCT-116; test: Induction of apoptosis in human HCT-116 cells assessed as viable cells at 7.5 uM incubated for 72 hrs by AnnexinV-FITC/PI staining based analysis (reference value: 98.95%); type: functional; conditions: read-out: Activity
[17] = test system: HCT-116; test: Inhibition of cell migration in human HCT-116 cells at 1 uM incubated for 24 hrs by wound healing assay; type: functional
[18] = test system: HCT-116; test: Inhibition of cell migration in human HCT-116 cells at 3 uM incubated for 48 hrs by wound healing assay; type: functional
[19] = test system: HCT-116; test: Induction of mitochondrial membrane potential loss in human HCT-116 cells assessed as JC-1 monomer level by measuring green fluorescence intensity at 0.3 uM incubated for 48 hrs by JC-1 staining based flow cytometry (reference value: 3.28%); type: functional
[20] = test system: HCT-116; test: Inhibition of cell migration in human HCT-116 cells at 0.3 uM incubated for 48 hrs by wound healing assay; type: functional
[21] = test system: DLD-1; test: Antiproliferative activity against human DLD-1 cells assessed as reduction in cell viability incubated for 48 hrs by MTT assay; type: functional, cell-based; conditions: DLD-1, 48 h
[22] = test system: HCT-116; test: Induction of apoptosis in human HCT-116 cells assessed as late apoptotic cells at 7.5 uM incubated for 72 hrs by AnnexinV-FITC/PI staining based analysis (reference value: 0%); type: functional
[23] = test system: HCT-116; test: Induction of apoptosis in human HCT-116 cells assessed as viable cells at 7.5 uM incubated for 48 hrs by AnnexinV-FITC/PI staining based flow cytometry (reference value: 97.89%); type: functional; conditions: read-out: Activity
[24] = test system: HCT-116; test: cells; conditions: Homo sapiens, HCT-116, 48 h
[25] = test system: HCT-116; test: Induction of cell cycle arrest in human HCT-116 cells assessed as accumulation of cells at G2/M phase at 1.5 uM incubated for 48 hrs by PI staining based flow cytometry (reference value: 24.7%); type: functional
[26] = test system: HCT-116; test: Induction of cell cycle arrest in human HCT-116 cells assessed as accumulation of cells at S phase at 7.5 uM incubated for 72 hrs by PI staining based flow cytometry (reference value: 16.7%); type: functional
[27] = test system: HCT-116; test: Inhibition of cell migration in human HCT-116 cells at 1 uM incubated for 48 hrs by wound healing assay; type: functional
[28] = test system: HCT-116; test: Induction of apoptosis in human HCT-116 cells assessed as viable cells at 0.3 uM incubated for 48 hrs by AnnexinV-FITC/PI staining based flow cytometry (reference value: 97.89%); type: functional; conditions: read-out: Activity
[29] = test system: HCT-116; test: Induction of apoptosis in human HCT-116 cells assessed as early apoptotic cells at 7.5 uM incubated for 72 hrs by AnnexinV-FITC/PI staining based analysis (reference value: 1.05%); type: functional
[30] = test system: HCT-116; test: Induction of apoptosis in human HCT-116 cells assessed as necrotic cells at 0.3 uM incubated for 48 hrs by AnnexinV-FITC/PI staining based flow cytometry (reference value: 0%); type: functional
[31] = test system: HCT-116; test: Induction of mitochondrial membrane potential loss in human HCT-116 cells assessed as JC-1 aggregate level by measuring red fluorescence intensity at 0.3 uM incubated for 48 hrs by JC-1 staining based flow cytometry (reference value: 96.72%); type: functional
[32] = test system: HCT-116; test: Induction of apoptosis in human HCT-116 cells assessed as late apoptotic cells at 0.3 uM incubated for 72 hrs by AnnexinV-FITC/PI staining based analysis (reference value: 0%); type: functional
[33] = test system: HCT-116; test: Induction of cell cycle arrest in human HCT-116 cells assessed as accumulation of cells at S phase at 0.3 uM incubated for 72 hrs by PI staining based flow cytometry (reference value: 16.7%); type: functional
[34] = test system: HCT-116; test: Induction of apoptosis in human HCT-116 cells assessed as late apoptotic cells at 1.5 uM incubated for 48 hrs by AnnexinV-FITC/PI staining based flow cytometry (reference value: 0%); type: functional
[35] = test system: HCT-116; test: Induction of apoptosis in human HCT-116 cells assessed as early apoptotic cells at 0.3 uM incubated for 48 hrs by AnnexinV-FITC/PI staining based flow cytometry (reference value: 2.11%); type: functional

NC(=O)c1ccccc1OCc1cccc(NC(=O)c2ccc(Br)cc2)c1
Activity [1]: 56.6% | Activity [2]: Dose-Dependent Effect | Activity [3]: 46.9% | Activity [4]: 0% | Activity [5]: 49.97% | Activity [6]: 60.7% | Activity [7]: 0.25% | Activity [8]: 49.7% | Activity [9]: Active | Activity [10]: 15.6% | Activity [11]: 12.5% | Activity [12]: Dose-Dependent Effect | Activity [13]: 11% | Activity [14]: Dose-Dependent Effect | Activity [15]: 45.5% | viability at 7.5 µM [16]: 20.5% | inhibition at 1 µM [17]: 18% | inhibition at 3 µM [18]: 43.2% | Activity [19]: 9.38% | inhibition at 0.3 µM [20]: 30.5% | IC50 [21]: 2.83 µM | Activity [22]: 0.05% | viability at 7.5 µM [23]: 57.4% | IC50 [24]: 0.3 µM | Activity [25]: 33% | Activity [26]: 20.3% | inhibition at 1 µM [27]: 36.3% | viability at 0.3 µM [28]: 90.4% | Activity [29]: 79.44% | Activity [30]: 0.23% | Activity [31]: 90.62% | Activity [32]: 0% | Activity [33]: 22.4% | Activity [34]: 2.97% | Activity [35]: 9.12%
